According to patent publication US12077503B2, “Substituted cyclic amides and their use as herbicides” (FMC CORPORATION, priority 2015, dated 2024):

Legend:
Assay type in all cases: in vivo
[1] = test system: ivy-leaved morning glory (Ipomoea hederacea); assay: Test G Pre-Emergence Protocol; conditions: evaluated after 13 days; for Morningglory, Ivy-leaved damage rating (100=total damage to plant; 0=no damage to plant): 250 g ai/ha
Method: (§1) Seeds of corn (Zea mays), giant foxtail (Setaria faberi), barnyardgrass (Echinochloa crus-galli), ivy-leaved morning glory (Ipomoea hederacea), redroot pigweed (Amaranthus retroflexus) and velvetleaf (Abutilon theophrasti) were sown in standard soil in pots. After cultivation for one day under controlled conditions in a glasshouse (at 24/16° C., day/night; 14 hours light; 65% humidity), the plants were sprayed with an aqueous spray solution derived from the formulation of the technical active ingredient in acetone/water (50:50) solution containing 0.5% Tween 20 (polyoxyethylene sorbitan monolaurate, CAS RN 9005-64-5) to give a final dose of 15.625, 62.5 or 250 g/ha of test compound.
(§2) The test plants were then grown on under controlled conditions in a glasshouse (at 24/16° C., day/night; 14 hours light; 65% humidity) and watered twice daily. After 13 days the test was evaluated (100=total damage to plant; 0=no damage to plant). A dash (-) means no test result.

corn (Zea mays) [2] = assay: Test G Pre-Emergence Protocol; conditions: evaluated after 13 days
Method: as §1, §2

[3] = test system: giant foxtail (Setaria faberi); assay: Test G Pre-Emergence Protocol; conditions: evaluated after 13 days
Method: as §1, §2

[4] = test system: barnyardgrass (Echinochloa crus-galli); assay: Test G Pre-Emergence Protocol; conditions: evaluated after 13 days
Method: as §1, §2

[5] = test system: redroot pigweed (Amaranthus retroflexus); assay: Test G Pre-Emergence Protocol; conditions: evaluated after 13 days
Method: as §1, §2

[6] = test system: velvetleaf (Abutilon theophrasti); assay: Test G Pre-Emergence Protocol; conditions: evaluated after 13 days
Method: as §1, §2

[7] = test system: ivy-leaved morning glory (Ipomoea hederacea); assay: Test G Post-Emergence Protocol
Method: as §1, with “8 days” for “one day”
as §2

corn (Zea mays) [8] = assay: Test G Post-Emergence Protocol
Method: as §1, with “8 days” for “one day”
as §2

[9] = test system: giant foxtail (Setaria faberi); assay: Test G Post-Emergence Protocol
Method: as §1, with “8 days” for “one day”
as §2

[10] = test system: barnyardgrass (Echinochloa crus-galli); assay: Test G Post-Emergence Protocol
Method: as §1, with “8 days” for “one day”
as §2

[11] = test system: redroot pigweed (Amaranthus retroflexus); assay: Test G Post-Emergence Protocol
Method: as §1, with “8 days” for “one day”
as §2

[12] = test system: velvetleaf (Abutilon theophrasti); assay: Test G Post-Emergence Protocol
Method: as §1, with “8 days” for “one day”
as §2

[13] = 62.5 g ai/ha, 100=total damage to plant, 0=no damage to plant
[14] = 15.625 g ai/ha, evaluated after 13 days (100=total damage to plant; 0=no damage to plant)
[15] = 62.5 g ai/ha, evaluated after 13 days
[16] = 250 g ai/ha, evaluated after 13 days

COc1ccc([C@@H]2CN(C)C(=O)[C@H]2C(=O)Nc2ccccc2F)cc1[N+](=O)[O-] (racemic) [Compound 1417]
Morning-glory, Ivy-leaved damage rating (100=total damage to plant; 0=no damage to plant) ([1]; 15.625 g ai/ha): 0
plant damage rating, Morningglory, Ivy-leaved [1, 13]: 0
Morningglory, Ivy-leaved damage rating (100=total damage to plant; 0=no damage to plant) [1]: 30
Corn damage rating (100=total damage to plant; 0=no damage to plant) (corn (Zea mays) [2]; 15.625 g ai/ha): 0
plant damage rating, Corn (corn (Zea mays) [2]; [13]): 0
Corn damage rating (100=total damage to plant; 0=no damage to plant) (corn (Zea mays) [2]; 250 g ai/ha): 0
Foxtail, Giant damage rating (100=total damage to plant; 0=no damage to plant) ([3]; 15.625 g ai/ha): 0
plant damage rating, Foxtail, Giant [3, 13]: 80
Foxtail, Giant damage rating (100=total damage to plant; 0=no damage to plant) ([3]; 250 g ai/ha): 90
Barnyardgrass damage rating (100=total damage to plant; 0=no damage to plant) ([4]; 15.625 g ai/ha): 0
plant damage rating, Barnyardgrass [4, 13]: 60
Barnyardgrass damage rating (100=total damage to plant; 0=no damage to plant) ([4]; 250 g ai/ha): 80
Pigweed, Redroot damage rating (100=total damage to plant; 0=no damage to plant) ([5]; 15.625 g ai/ha): 0
plant damage rating, Pigweed, Redroot [5, 13]: 0
Pigweed, Redroot damage rating (100=total damage to plant; 0=no damage to plant) ([5]; 250 g ai/ha): 30
Velvetleaf damage rating (100=total damage to plant; 0=no damage to plant) ([6]; 15.625 g ai/ha): 0
plant damage rating, Velvetleaf [6, 13]: 0
Velvetleaf damage rating (100=total damage to plant; 0=no damage to plant) ([6]; 250 g ai/ha): 0
Morningglory, Ivy-leaved damage rating [7, 14]: 0
Morningglory, Ivy-leaved damage rating (100=total damage to plant; 0=no damage to plant) [7, 15]: 20
damage to plant, Morningglory, Ivy-leaved (100=total damage to plant; 0=no damage to plant) [7, 16]: 30
Corn damage rating (corn (Zea mays) [8]; [14]): 0
Corn damage rating (100=total damage to plant; 0=no damage to plant) (corn (Zea mays) [8]; [15]): 10
damage to plant, Corn (100=total damage to plant; 0=no damage to plant) (corn (Zea mays) [8]; [16]): 20
Foxtail, Giant damage rating [9, 14]: 0
Foxtail, Giant damage rating (100=total damage to plant; 0=no damage to plant) [9, 15]: 70
damage to plant, Foxtail, Giant (100=total damage to plant; 0=no damage to plant) [9, 16]: 70
Barnyardgrass damage rating [10, 14]: 10
Barnyardgrass damage rating (100=total damage to plant; 0=no damage to plant) [10, 15]: 40
damage to plant, Barnyardgrass (100=total damage to plant; 0=no damage to plant) [10, 16]: 60
Pigweed, Redroot damage rating [11, 14]: 20
Pigweed, Redroot damage rating (100=total damage to plant; 0=no damage to plant) [11, 15]: 10
damage to plant, Pigweed, Redroot (100=total damage to plant; 0=no damage to plant) [11, 16]: 30
Velvetleaf damage rating [12, 14]: 10
Velvetleaf damage rating (100=total damage to plant; 0=no damage to plant) [12, 15]: 20
damage to plant, Velvetleaf (100=total damage to plant; 0=no damage to plant) [12, 16]: 20

COc1c(Cl)ccc([C@H]2CN(C)C(=O)[C@@H]2C(=O)Nc2cccc(F)c2F)c1F (racemic) [Compound 1476]
Morningglory, Ivy-leaved damage rating (100=total damage to plant; 0=no damage to plant) [1]: 0
pest or weed control at 15.625 g/ha ([1]; Ipomoea, pre-emergence, 312 h, 15.625 g ai/ha, read-out: Morning-glory, Ivy-leaved damage rating (100=total damage to plant; 0=no damage to plant)): 0%
pest or weed control at 62.5 g/ha ([1]; Ipomoea, pre-emergence, 312 h, 62.5 g ai/ha, 100=total damage to plant, 0=no damage to plant, read-out: plant damage rating, Morningglory, Ivy-leaved): 0%
Corn damage rating (100=total damage to plant; 0=no damage to plant) (corn (Zea mays) [2]; 15.625 g ai/ha): 0
Corn damage rating (100=total damage to plant; 0=no damage to plant) (corn (Zea mays) [2]; 250 g ai/ha): 50
plant injury at 62.5 g/ha (corn (Zea mays) [2]; Zea mays, pre-emergence, 312 h, 62.5 g ai/ha, 100=total damage to plant, 0=no damage to plant, read-out: plant damage rating, Corn): 0%
Foxtail, Giant damage rating (100=total damage to plant; 0=no damage to plant) ([3]; 15.625 g ai/ha): 70
Foxtail, Giant damage rating (100=total damage to plant; 0=no damage to plant) ([3]; 250 g ai/ha): 80
pest or weed control at 62.5 g/ha ([3]; Setaria faberi, pre-emergence, 312 h, 62.5 g ai/ha, 100=total damage to plant, 0=no damage to plant, read-out: plant damage rating, Foxtail, Giant): 80%
Barnyardgrass damage rating (100=total damage to plant; 0=no damage to plant) ([4]; 250 g ai/ha): 80
pest or weed control at 15.625 g/ha ([4]; Echinochloa crus-galli, pre-emergence, 312 h, 15.625 g ai/ha, read-out: Barnyard grass damage rating (100=total damage to plant; 0=no damage to plant)): 60%
pest or weed control at 62.5 g/ha ([4]; Echinochloa crus-galli, pre-emergence, 312 h, 62.5 g ai/ha, 100=total damage to plant, 0=no damage to plant, read-out: plant damage rating, Barnyardgrass): 70%
Pigweed, Redroot damage rating (100=total damage to plant; 0=no damage to plant) ([5]; 15.625 g ai/ha): 0
Pigweed, Redroot damage rating (100=total damage to plant; 0=no damage to plant) ([5]; 250 g ai/ha): 0
pest or weed control at 62.5 g/ha ([5]; Amaranthus retroflexus, pre-emergence, 312 h, 62.5 g ai/ha, 100=total damage to plant, 0=no damage to plant, read-out: plant damage rating, Pigweed, Redroot): 0%
Velvetleaf damage rating (100=total damage to plant; 0=no damage to plant) ([6]; 15.625 g ai/ha): 0
Velvetleaf damage rating (100=total damage to plant; 0=no damage to plant) ([6]; 250 g ai/ha): 0
pest or weed control at 62.5 g/ha ([6]; Abutilon theophrasti, pre-emergence, 312 h, 62.5 g ai/ha, 100=total damage to plant, 0=no damage to plant, read-out: plant damage rating, Velvetleaf): 0%
pest or weed control at 15.625 g/ha ([7]; Ipomoea, post-emergence, 312 h, 15.625 g ai/ha, evaluated after 13 days (100=total damage to plant; 0=no damage to plant), read-out: Morningglory, Ivy-leaved damage rating): 20%
pest or weed control at 62.5 g/ha ([7]; Ipomoea, post-emergence, 312 h, 62.5 g ai/ha, evaluated after 13 days, read-out: Morningglory, Ivy-leaved damage rating (100=total damage to plant; 0=no damage to plant)): 20%
pest or weed control at 250 g/ha ([7]; Ipomoea, post-emergence, 312 h, 250 g ai/ha, evaluated after 13 days, read-out: damage to plant, Morningglory, Ivy-leaved (100=total damage to plant; 0=no damage to plant)): 60%
plant injury at 15.625 g/ha (corn (Zea mays) [8]; Zea mays, post-emergence, 312 h, 15.625 g ai/ha, evaluated after 13 days (100=total damage to plant; 0=no damage to plant), read-out: Corn damage rating): 10%
plant injury at 62.5 g/ha (corn (Zea mays) [8]; Zea mays, post-emergence, 312 h, 62.5 g ai/ha, evaluated after 13 days, read-out: Corn damage rating (100=total damage to plant; 0=no damage to plant)): 20%
plant injury at 250 g/ha (corn (Zea mays) [8]; Zea mays, post-emergence, 312 h, 250 g ai/ha, evaluated after 13 days, read-out: damage to plant, Corn (100=total damage to plant; 0=no damage to plant)): 70%
pest or weed control at 15.625 g/ha ([9]; Setaria faberi, post-emergence, 312 h, 15.625 g ai/ha, evaluated after 13 days (100=total damage to plant; 0=no damage to plant), read-out: Foxtail, Giant damage rating): 60%
pest or weed control at 62.5 g/ha ([9]; Setaria faberi, post-emergence, 312 h, 62.5 g ai/ha, evaluated after 13 days, read-out: Foxtail, Giant damage rating (100=total damage to plant; 0=no damage to plant)): 70%
pest or weed control at 250 g/ha ([9]; Setaria faberi, post-emergence, 312 h, 250 g ai/ha, evaluated after 13 days, read-out: damage to plant, Foxtail, Giant (100=total damage to plant; 0=no damage to plant)): 70%
pest or weed control at 15.625 g/ha ([10]; Echinochloa crus-galli, post-emergence, 312 h, 15.625 g ai/ha, evaluated after 13 days (100=total damage to plant; 0=no damage to plant), read-out: Barnyardgrass damage rating): 40%
pest or weed control at 62.5 g/ha ([10]; Echinochloa crus-galli, post-emergence, 312 h, 62.5 g ai/ha, evaluated after 13 days, read-out: Barnyardgrass damage rating (100=total damage to plant; 0=no damage to plant)): 50%
pest or weed control at 250 g/ha ([10]; Echinochloa crus-galli, post-emergence, 312 h, 250 g ai/ha, evaluated after 13 days, read-out: damage to plant, Barnyardgrass (100=total damage to plant; 0=no damage to plant)): 60%
pest or weed control at 15.625 g/ha ([11]; Amaranthus retroflexus, post-emergence, 312 h, 15.625 g ai/ha, evaluated after 13 days (100=total damage to plant; 0=no damage to plant), read-out: Pigweed, Redroot damage rating): 10%
pest or weed control at 62.5 g/ha ([11]; Amaranthus retroflexus, post-emergence, 312 h, 62.5 g ai/ha, evaluated after 13 days, read-out: Pigweed, Redroot damage rating (100=total damage to plant; 0=no damage to plant)): 0%
pest or weed control at 250 g/ha ([11]; Amaranthus retroflexus, post-emergence, 312 h, 250 g ai/ha, evaluated after 13 days, read-out: damage to plant, Pigweed, Redroot (100=total damage to plant; 0=no damage to plant)): 10%
pest or weed control at 15.625 g/ha ([12]; Abutilon theophrasti, post-emergence, 312 h, 15.625 g ai/ha, evaluated after 13 days (100=total damage to plant; 0=no damage to plant), read-out: Velvetleaf damage rating): 10%
pest or weed control at 62.5 g/ha ([12]; Abutilon theophrasti, post-emergence, 312 h, 62.5 g ai/ha, evaluated after 13 days, read-out: Velvetleaf damage rating (100=total damage to plant; 0=no damage to plant)): 0%
pest or weed control at 250 g/ha ([12]; Abutilon theophrasti, post-emergence, 312 h, 250 g ai/ha, evaluated after 13 days, read-out: damage to plant, Velvetleaf (100=total damage to plant; 0=no damage to plant)): 10%
